Measurements reported in ChEMBL document CHEMBL1149344, “Discovery of aminoquinazolines as potent, orally bioavailable inhibitors of Lck: synthesis, SAR, and in vivo anti-inflammatory activity” (J Med Chem, 2006).
≈ marks a conversion by molar mass, not a printed value.

Experiments:
[1] = target: Vascular endothelial growth factor receptor 2 (Homo sapiens, UniProt P35968); assay: Inhibition of KDR by HTRF kinase assay
[2] = target: Mitogen-activated protein kinase 14 (Homo sapiens, UniProt Q16539); assay: Inhibition of p38-alpha by HTRF kinase assay
Sequence of Mitogen-activated protein kinase 14 (Q16539 whole entry): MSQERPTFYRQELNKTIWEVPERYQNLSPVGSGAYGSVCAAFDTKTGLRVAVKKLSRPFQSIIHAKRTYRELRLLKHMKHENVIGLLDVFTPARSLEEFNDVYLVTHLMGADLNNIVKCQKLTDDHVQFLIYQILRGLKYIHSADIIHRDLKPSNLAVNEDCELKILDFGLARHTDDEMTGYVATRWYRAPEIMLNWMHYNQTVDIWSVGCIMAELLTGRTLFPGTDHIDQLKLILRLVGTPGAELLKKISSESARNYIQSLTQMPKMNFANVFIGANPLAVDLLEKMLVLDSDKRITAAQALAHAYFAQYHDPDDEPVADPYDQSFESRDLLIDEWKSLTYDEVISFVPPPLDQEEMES

[3] = target: T1, Tyrosine-protein kinase JAK3 (Homo sapiens, UniProt P52333); assay: Inhibition of Jak3 by HTRF kinase assay
T1 sequence (P52333 whole entry): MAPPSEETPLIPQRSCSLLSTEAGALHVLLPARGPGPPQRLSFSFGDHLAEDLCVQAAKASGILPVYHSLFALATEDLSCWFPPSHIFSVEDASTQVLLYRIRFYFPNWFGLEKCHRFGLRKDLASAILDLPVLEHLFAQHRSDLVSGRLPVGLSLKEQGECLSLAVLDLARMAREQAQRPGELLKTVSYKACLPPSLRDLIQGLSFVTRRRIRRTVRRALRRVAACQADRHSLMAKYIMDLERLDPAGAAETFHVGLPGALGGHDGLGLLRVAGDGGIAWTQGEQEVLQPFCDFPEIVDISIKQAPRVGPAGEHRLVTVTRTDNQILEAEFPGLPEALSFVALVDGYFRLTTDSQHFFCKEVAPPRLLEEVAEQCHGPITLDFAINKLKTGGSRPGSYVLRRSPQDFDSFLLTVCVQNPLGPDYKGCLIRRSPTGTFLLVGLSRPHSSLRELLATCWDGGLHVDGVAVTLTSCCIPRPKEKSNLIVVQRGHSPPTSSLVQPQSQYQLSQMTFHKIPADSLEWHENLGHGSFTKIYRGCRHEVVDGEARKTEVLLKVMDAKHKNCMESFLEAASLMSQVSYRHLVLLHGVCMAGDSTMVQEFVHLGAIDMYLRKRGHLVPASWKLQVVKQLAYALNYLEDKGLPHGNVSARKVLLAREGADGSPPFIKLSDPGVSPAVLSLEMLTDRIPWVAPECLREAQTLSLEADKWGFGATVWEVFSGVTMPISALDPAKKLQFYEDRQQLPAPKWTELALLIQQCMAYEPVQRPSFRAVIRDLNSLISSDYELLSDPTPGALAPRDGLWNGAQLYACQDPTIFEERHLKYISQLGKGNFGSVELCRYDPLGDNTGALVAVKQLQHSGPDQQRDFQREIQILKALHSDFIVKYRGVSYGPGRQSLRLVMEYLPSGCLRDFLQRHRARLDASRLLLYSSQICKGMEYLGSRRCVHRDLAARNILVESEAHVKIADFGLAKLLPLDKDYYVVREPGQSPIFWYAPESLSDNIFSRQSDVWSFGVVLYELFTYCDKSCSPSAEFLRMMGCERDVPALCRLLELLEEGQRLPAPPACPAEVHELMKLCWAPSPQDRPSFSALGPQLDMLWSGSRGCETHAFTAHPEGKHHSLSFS

Homo sapiens [4] = species on record: Homo sapiens; assay: Inhibition of anti CD3-induced IL2 production in human whole blood; assay type: functional
T-cell [5] = assay: Inhibition of human T cell proliferation by mixed lymphocyte reaction
T-cell [6] = assay: Inhibition of anti CD3/CD28-induced IL2 secretion in human T cells; assay type: functional, cell-based
[7] = target: Tyrosine-protein kinase Lck (Homo sapiens, UniProt P06239)
Sequence of Tyrosine-protein kinase Lck (P06239 whole entry): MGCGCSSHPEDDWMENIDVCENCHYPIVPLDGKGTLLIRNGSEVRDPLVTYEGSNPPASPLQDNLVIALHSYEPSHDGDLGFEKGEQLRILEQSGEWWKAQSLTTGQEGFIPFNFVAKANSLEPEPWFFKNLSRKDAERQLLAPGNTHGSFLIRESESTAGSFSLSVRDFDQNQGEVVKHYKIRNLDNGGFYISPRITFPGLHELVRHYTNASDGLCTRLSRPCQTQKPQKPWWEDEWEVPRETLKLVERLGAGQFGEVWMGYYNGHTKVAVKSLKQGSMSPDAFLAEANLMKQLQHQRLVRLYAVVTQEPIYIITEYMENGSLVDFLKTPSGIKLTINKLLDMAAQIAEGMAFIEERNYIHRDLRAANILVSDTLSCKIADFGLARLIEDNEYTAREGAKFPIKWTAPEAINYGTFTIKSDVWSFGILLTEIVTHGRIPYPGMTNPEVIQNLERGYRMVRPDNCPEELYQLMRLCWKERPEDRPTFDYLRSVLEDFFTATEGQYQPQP

[8] = Solubility in fasted state simulated intestinal fluid at pH 6.8; assay type: physicochemical; conditions: read-out: Solubility
Homo sapiens [9] = species on record: Homo sapiens; assay: Inhibition of […] TNF alpha production in human whole blood; assay type: functional
[10] = Protein binding in mouse plasma; assay type: ADME; conditions: read-out: PPB (converted)
[11] = Protein binding in rat plasma; assay type: ADME, cell-free; conditions: read-out: PPB (converted)
[12] = Clearance in Sprague-Dawley rat at 2 mg/kg, iv; assay type: ADME, organism-based; set-up: dose 2 mg/kg, route intravenous; conditions: in vivo
[13] = Volume of distribution in Sprague-Dawley rat at 2 mg/kg, iv; assay type: ADME, organism-based; set-up: dose 2 mg/kg, route intravenous; conditions: in vivo, read-out: Vss
[14] = Half life in Sprague-Dawley rat at 2 mg/kg, iv; assay type: ADME, organism-based; set-up: dose 2 mg/kg, route intravenous; conditions: in vivo
[15] = AUC (0-infinity) in Sprague-Dawley rat at 5 mg/kg, po; assay type: ADME, organism-based; set-up: time infinity, dose 5 mg/kg, route oral; conditions: plasma
[16] = Cmax in Sprague-Dawley rat at 5 mg/kg, po; assay type: ADME, organism-based; set-up: dose 5 mg/kg, route oral; conditions: in vivo
[17] = Tmax in Sprague-Dawley rat at 5 mg/kg, po; assay type: ADME, organism-based; set-up: dose 5 mg/kg, route oral; conditions: in vivo
[18] = Bioavailability in Sprague-Dawley rat at 5 mg/kg, po; assay type: ADME, organism-based; conditions: in vivo
[19] = target: Tyrosine-protein kinase BTK (Homo sapiens, UniProt Q06187); assay: Inhibition of Btk by HTRF kinase assay
Mus musculus [20] = assay: Inhibition of anti CD3-induced IL2 production in BALB/c mouse at 10 mg/kg, po relative to control; assay type: functional
Mus musculus [21] = assay: Inhibition of anti CD3-induced IL2 production in BALB/c mouse at 30 mg/kg, po relative to control; assay type: functional
Mus musculus [22] = assay: Inhibition of anti CD3-induced IL2 production in BALB/c mouse at 100 mg/kg, po relative to control; assay type: functional
Mus musculus [23] = assay: Mean terminal plasma concentration in BALB/c mouse at 22 mg/kg, po after […]; assay type: ADME, organism-based; set-up: dose 22 mg/kg, route oral
[24] = Clearance in Sprague-Dawley rat at 5 mg/kg, iv; assay type: ADME, organism-based; set-up: dose 5 mg/kg, route intravenous; conditions: in vivo
[25] = AUC (0-infinity) in Sprague-Dawley rat at 2 mg/kg, po; assay type: ADME, organism-based; set-up: time infinity, dose 2 mg/kg, route oral; conditions: plasma
[26] = target: Proto-oncogene tyrosine-protein kinase Src (Homo sapiens, UniProt P12931); assay: Inhibition of Src by HTRF kinase assay
[27] = target: Tyrosine-protein kinase SYK (Homo sapiens, UniProt P43405); assay: Inhibition of Syk by HTRF kinase assay
[28] = target: Non-receptor tyrosine-protein kinase TYK2 (Homo sapiens, UniProt P29597); assay: Inhibition of Tyk2 by HTRF kinase assay
Sequence of Non-receptor tyrosine-protein kinase TYK2 (P29597 whole entry): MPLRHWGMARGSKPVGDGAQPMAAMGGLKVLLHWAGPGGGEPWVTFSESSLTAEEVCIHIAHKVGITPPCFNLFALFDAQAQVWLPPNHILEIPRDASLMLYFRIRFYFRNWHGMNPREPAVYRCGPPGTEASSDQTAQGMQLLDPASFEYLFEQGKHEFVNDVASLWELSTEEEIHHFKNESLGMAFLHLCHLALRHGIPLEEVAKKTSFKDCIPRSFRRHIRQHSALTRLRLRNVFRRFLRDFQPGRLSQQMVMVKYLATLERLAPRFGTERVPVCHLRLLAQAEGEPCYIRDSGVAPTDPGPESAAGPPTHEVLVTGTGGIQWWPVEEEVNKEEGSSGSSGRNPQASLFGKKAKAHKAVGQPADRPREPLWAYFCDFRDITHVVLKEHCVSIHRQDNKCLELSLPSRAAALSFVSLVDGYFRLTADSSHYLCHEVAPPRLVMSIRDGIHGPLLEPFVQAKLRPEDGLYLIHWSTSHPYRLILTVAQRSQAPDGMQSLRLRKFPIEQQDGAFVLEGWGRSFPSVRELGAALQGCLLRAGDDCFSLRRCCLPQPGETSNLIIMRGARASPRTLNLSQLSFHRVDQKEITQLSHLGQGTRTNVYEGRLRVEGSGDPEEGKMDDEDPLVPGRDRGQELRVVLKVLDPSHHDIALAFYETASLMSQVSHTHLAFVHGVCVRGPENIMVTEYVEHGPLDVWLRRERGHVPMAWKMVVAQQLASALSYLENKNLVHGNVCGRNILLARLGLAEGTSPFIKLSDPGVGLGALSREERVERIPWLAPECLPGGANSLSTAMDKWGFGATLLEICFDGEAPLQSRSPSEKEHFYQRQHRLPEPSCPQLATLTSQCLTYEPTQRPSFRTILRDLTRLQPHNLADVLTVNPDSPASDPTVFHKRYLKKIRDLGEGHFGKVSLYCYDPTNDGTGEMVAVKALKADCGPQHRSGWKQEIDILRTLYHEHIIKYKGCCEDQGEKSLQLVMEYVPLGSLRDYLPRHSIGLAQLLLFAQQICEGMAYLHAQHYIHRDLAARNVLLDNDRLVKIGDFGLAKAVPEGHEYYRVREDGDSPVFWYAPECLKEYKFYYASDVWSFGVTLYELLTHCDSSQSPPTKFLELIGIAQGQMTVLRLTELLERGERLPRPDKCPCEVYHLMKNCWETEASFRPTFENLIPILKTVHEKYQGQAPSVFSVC

[29] = target: Tyrosine-protein kinase ITK/TSK (Homo sapiens, UniProt Q08881); assay: Inhibition of Itk by HTRF kinase assay
Sequence of Tyrosine-protein kinase ITK/TSK (Q08881 whole entry): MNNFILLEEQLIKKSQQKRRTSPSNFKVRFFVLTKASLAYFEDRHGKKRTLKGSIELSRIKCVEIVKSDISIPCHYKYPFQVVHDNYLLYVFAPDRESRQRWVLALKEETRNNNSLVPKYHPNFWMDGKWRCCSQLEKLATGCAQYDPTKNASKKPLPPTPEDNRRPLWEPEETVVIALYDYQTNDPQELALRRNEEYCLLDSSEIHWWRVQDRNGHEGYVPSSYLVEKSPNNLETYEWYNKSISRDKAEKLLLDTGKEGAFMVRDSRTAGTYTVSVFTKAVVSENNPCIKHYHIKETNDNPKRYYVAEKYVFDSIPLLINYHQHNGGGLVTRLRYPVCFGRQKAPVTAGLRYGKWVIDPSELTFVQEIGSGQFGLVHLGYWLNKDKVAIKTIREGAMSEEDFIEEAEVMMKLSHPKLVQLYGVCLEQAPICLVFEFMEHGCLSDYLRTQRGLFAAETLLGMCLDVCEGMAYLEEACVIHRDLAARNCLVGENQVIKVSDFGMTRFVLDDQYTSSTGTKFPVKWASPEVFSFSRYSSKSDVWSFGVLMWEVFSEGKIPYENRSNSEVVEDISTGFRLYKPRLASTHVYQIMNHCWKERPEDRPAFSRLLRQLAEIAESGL

[30] = target: Cyclin-dependent kinase 5 (Homo sapiens, UniProt Q00535); assay: Inhibition of CDK5 by HTRF kinase assay
[31] = target: Ribosomal protein S6 kinase alpha-5 (Homo sapiens, UniProt O75582); assay: Inhibition of MSK1 by HTRF kinase assay
[32] = target: Serine/threonine-protein kinase PAK 2 (Homo sapiens, UniProt Q13177); assay: Inhibition of Pak2 by HTRF kinase assay
[33] = target: Mitogen-activated protein kinase 8 (Homo sapiens, UniProt P45983); assay: Inhibition of JNK1 by HTRF kinase assay
Sequence of Mitogen-activated protein kinase 8 (P45983 whole entry): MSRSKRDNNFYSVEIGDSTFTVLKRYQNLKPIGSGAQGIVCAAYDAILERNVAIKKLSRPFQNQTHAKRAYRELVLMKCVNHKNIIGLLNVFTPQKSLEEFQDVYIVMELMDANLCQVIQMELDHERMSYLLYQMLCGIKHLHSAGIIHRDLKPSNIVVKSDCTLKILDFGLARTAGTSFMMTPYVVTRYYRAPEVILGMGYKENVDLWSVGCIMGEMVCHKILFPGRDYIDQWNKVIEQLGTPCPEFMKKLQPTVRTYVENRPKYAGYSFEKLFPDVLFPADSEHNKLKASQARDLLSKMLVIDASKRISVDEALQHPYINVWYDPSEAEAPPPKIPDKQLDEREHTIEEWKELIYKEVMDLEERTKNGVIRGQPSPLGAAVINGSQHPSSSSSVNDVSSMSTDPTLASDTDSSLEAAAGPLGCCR

[34] = target: Mitogen-activated protein kinase 9 (Homo sapiens, UniProt P45984); assay: Inhibition of JNK2 by HTRF kinase assay
[35] = target: Mitogen-activated protein kinase 10 (Homo sapiens, UniProt P53779); assay: Inhibition of JNK3 by HTRF kinase assay
[36] = target: RAC-alpha serine/threonine-protein kinase (Homo sapiens, UniProt P31749); assay: Inhibition of PKBalpha by HTRF kinase assay
[37] = target: cAMP-dependent protein kinase catalytic subunit beta (Homo sapiens, UniProt P22694); assay: Inhibition of PKAbeta by HTRF kinase assay
[38] = target: Tyrosine-protein kinase ZAP-70 (Homo sapiens, UniProt P43403); assay: Inhibition of Zap70 by HTRF kinase assay
Sequence of Tyrosine-protein kinase ZAP-70 (P43403 whole entry): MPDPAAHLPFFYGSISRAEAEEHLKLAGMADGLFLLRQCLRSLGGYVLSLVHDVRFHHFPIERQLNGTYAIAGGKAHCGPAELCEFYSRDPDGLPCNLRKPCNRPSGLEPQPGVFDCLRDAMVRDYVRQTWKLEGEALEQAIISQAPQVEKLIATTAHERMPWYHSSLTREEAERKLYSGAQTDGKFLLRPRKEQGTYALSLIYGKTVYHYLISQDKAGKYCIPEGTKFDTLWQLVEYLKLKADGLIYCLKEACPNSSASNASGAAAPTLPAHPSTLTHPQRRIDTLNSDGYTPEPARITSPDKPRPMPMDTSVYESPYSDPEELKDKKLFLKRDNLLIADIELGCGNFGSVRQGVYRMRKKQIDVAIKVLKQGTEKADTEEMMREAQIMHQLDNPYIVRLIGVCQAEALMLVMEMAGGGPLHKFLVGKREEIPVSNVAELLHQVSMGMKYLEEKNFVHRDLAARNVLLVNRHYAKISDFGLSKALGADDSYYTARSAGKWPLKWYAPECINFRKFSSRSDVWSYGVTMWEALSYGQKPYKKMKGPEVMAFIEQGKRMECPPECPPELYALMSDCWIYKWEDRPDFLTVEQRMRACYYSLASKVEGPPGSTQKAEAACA

[39] = Volume of distribution in Sprague-Dawley rat at 5 mg/kg, iv; assay type: ADME, organism-based; set-up: dose 5 mg/kg, route intravenous; conditions: in vivo, read-out: Vss
[40] = Half life in Sprague-Dawley rat at 5 mg/kg, iv; assay type: ADME, organism-based; set-up: dose 5 mg/kg, route intravenous; conditions: in vivo
[41] = Cmax in Sprague-Dawley rat at 2 mg/kg, po; assay type: ADME, organism-based; set-up: dose 2 mg/kg, route oral; conditions: in vivo
[42] = Tmax in Sprague-Dawley rat at 2 mg/kg, po; assay type: ADME, organism-based; set-up: dose 2 mg/kg, route oral; conditions: in vivo
[43] = Bioavailability in Sprague-Dawley rat at 2 mg/kg, po; assay type: ADME, organism-based; conditions: in vivo

Sequence of Vascular endothelial growth factor receptor 2 (P35968 whole entry): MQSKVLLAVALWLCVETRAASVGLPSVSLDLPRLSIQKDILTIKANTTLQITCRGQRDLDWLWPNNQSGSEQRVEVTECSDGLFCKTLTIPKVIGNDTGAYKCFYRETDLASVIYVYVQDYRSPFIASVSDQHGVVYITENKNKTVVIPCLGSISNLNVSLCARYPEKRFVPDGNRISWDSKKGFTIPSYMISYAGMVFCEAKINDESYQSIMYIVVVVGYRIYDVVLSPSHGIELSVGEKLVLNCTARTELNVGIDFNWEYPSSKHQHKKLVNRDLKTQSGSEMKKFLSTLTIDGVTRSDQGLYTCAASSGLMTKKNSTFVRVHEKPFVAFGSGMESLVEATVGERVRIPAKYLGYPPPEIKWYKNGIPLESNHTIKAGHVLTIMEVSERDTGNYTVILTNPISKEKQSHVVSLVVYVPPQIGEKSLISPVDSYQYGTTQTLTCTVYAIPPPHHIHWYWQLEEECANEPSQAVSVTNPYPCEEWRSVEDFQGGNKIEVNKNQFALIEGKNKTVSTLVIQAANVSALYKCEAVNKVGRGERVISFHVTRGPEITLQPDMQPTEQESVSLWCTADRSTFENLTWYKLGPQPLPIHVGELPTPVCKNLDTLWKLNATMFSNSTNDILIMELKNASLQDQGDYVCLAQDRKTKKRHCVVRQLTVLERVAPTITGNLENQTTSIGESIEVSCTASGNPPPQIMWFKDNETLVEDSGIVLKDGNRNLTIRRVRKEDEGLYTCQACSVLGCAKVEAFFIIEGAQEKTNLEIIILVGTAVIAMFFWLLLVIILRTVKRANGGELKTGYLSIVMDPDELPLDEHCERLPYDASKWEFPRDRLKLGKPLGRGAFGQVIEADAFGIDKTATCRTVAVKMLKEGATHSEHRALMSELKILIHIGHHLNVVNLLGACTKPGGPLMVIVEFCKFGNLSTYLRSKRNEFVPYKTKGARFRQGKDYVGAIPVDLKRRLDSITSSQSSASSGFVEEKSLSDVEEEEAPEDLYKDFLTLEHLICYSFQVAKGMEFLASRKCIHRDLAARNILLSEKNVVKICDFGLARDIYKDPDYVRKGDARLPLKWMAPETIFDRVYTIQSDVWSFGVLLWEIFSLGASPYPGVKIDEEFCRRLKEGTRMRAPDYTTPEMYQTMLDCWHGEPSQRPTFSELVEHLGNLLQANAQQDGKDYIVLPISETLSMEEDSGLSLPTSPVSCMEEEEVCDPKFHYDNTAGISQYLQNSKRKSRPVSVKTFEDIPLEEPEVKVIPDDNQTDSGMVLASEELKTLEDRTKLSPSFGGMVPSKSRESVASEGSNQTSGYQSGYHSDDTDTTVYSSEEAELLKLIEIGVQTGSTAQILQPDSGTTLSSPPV

Compound: CNc1ncc2cc(-c3cc(C(=O)Nc4cc(C(F)(F)F)ccc4N4CC(C)(C)C4=O)ccc3C)ccc2n1
- IC50 [1]: 360 nM
- IC50 [2]: 172 nM
- IC50 [3]: 193 nM
- Activity (Homo sapiens [4]): 2.31 µM
- IC50 (T-cell [5]): 17 nM
- IC50 (T-cell [6]): 89 nM
- IC50 [7]: 2 nM

Compound: Cc1ccc(C(=O)Nc2cccc(C(F)(F)F)c2)cc1-c1ccc2nc(N)ncc2c1
- IC50 [1]: 2 nM
- IC50 [2]: 6 nM
- IC50 [3]: 20 nM
- solubility [8]: 27 µg/mL (≈ 63.9 µM)
- Activity (Homo sapiens [4]): 0.216 µM
- Activity (Homo sapiens [9]): >10 µM
- fraction unbound [10]: 0.006
- fraction unbound [11]: 0.024
- clearance [12]: 18.4 mL/min/kg
- Vd [13]: 1.55 L/kg
- half-life [14]: 2.7 h
- AUC(0-inf) [15]: 91 ng·h/mL
- Cmax [16]: 19 ng/mL
- Tmax [17]: 4 h
- bioavailability [18]: 2%
- IC50 (T-cell [5]): 87 nM
- IC50 (T-cell [6]): 88 nM

Compound: CNc1ncc2cc(-c3cc(C(=O)Nc4cc(C(F)(F)F)ccc4OC4CCN(C)CC4)ccc3C)ccc2n1
- IC50 [19]: 3330 nM
- IC50 [1]: 17 nM
- IC50 [2]: 9 nM
- IC50 [3]: 868 nM
- Activity (Homo sapiens [4]): 0.113 µM
- Activity (Homo sapiens [9]): >2.5 µM
- inhibition in vivo at 10 mg/kg (Mus musculus [20]): -3%
- inhibition in vivo at 30 mg/kg (Mus musculus [21]): 72%
- inhibition in vivo at 100 mg/kg (Mus musculus [22]): 96%
- EC50 (Mus musculus [23]): 1400 nM
- clearance [24]: 13.9 mL/min/kg
- AUC(0-inf) [25]: 1370 ng·h/mL
- IC50 [26]: 17 nM
- IC50 [27]: 1110 nM
- IC50 [28]: 2730 nM
- IC50 [29]: > 5000 nM
- IC50 [30]: > 25000 nM
- IC50 [31]: > 25000 nM
- IC50 [32]: > 25000 nM
- IC50 [33]: > 10000 nM
- IC50 [34]: > 25000 nM
- IC50 [35]: > 5000 nM
- IC50 [36]: > 25000 nM
- IC50 [37]: > 25000 nM
- IC50 [38]: > 25000 nM
- Vd [39]: 7.63 L/kg
- half-life [40]: 6.5 h
- Cmax [41]: 121 ng/mL
- Tmax [42]: 6 h
- bioavailability [43]: 55%
- IC50 (T-cell [5]): 243 nM
- IC50 (T-cell [6]): 36 nM
- IC50 [7]: 0.5 nM
